Source: US5998426A, “9,10 disubstituted camptothecin derivatives with antitumor activity” (Pharmacia & Upjohn S.p.A., priority 1996, dated 1999)

Test system: L1210 cells (murine lymphocytic leukemia)
Experiment: Cytotoxic activity in vitro on L1210 cells (50% inhibition of cellular growth) after 48 h continuous treatment
Format: cell-based
Settings: Mus musculus, total cells counted with Coulter Counter, DMSO final concentration 0.5%, read-out: IC50 (concentration inhibiting 50% of cell growth)
Procedure: The IC50 was determined for each compound of formula (Ia), (Ib) and (Ic) from dose-response curves counting the total number of cells with a Coulter Counter (Kontron mod. ZM).
The tested compounds were dissolved in dimethylsulfoxide (DMSO) at a final concentration of 0.5%.

Structure (SMILES)	IC50
CCc1c2c(nc3ccc(OS(=O)(=O)c4ccc(C)cc4)c(N)c13)-c1cc3c(c(=O)n1C2)COC(=O)[C@]3(O)CC [Formula (Ic), 7-ethyl-9-amino-10-(p-toluenesulfonyloxy)-20(S)-camptothecin]	4.6 ± 0.1 ng/mL
CC[C@@]1(O)C(=O)OCc2c1cc1n(c2=O)Cc2cc3c(N)c(OS(=O)(=O)c4ccccc4)ccc3nc2-1 [Formula (Ib), 9-amino-10-phenylsulfonyloxy-20(S)-camptothecin]	6.8 ± 0.4 ng/mL
CC[C@@]1(O)C(=O)OCc2c1cc1n(c2=O)Cc2cc3c(N)c(OS(=O)(=O)c4cccc5ccccc45)ccc3nc2-1 [Formula (Ia), 9-amino-10-(1-naphthylsulfonyloxy)-20(S)-camptothecin]	2.2 ± 0.3 ng/mL
